How the values were obtained:
[1] = tested on: 4T1 mouse breast cancer cells; assay: LDH release cytotoxicity assay in 4T1 cells; type: cell-based; conditions: 10 or 20 μM, 24 or 48 h, other than the lowest dose and shortest time
Description: FIG. 8. Cytotoxicity of DOX and prodrugs in 4T1 mouse breast cancer cells.
DOX is a known cytotoxic agent used against 4T1 triple-negative breast cancer cells grown in culture or injected orthotopically into mouse mammary fat pads to initiate the development of tumors.^52,53 As an initial test to see if c1 could retain the cytotoxic properties of DOX toward tumor-forming 4T1 cells, we conducted LDH assays to assess cytotoxicity of DOX, c1 and c2 treatments.

[2] = Methylene blue assay of H2S release; type: physicochemical; conditions: for H2S released: c1 40 μM
Description: FIG. 3. Methylene blue assay depicting the time-dependent release of H2S from c1 (40 μM) while in the presence of H2O2 (40 μM) and carbonic anhydrase (CA). Plotted as the mean±SEM from three independent experiments. Data were collected in the presence (circles) or absence (squares) of H2O2.
H2S release from c1. We confirmed the time-dependent liberation of H2S using a methylene blue assay^46 and measuring the resulting absorbance at 670 nm after c1 exposure to H2O2 (FIG. 3, circle). Using a calibration curve generated with Na2S, we determined that c1 (40 μM) was able to release more than 16 μM H2S while in the presence of both H2O2 ([…]) and carbonic anhydrase (CA). […] As a control, the same assay was also run in the absence of CA (data not shown). Under these conditions, c1 exposure to H2O2 yielded small amounts of H2S ([…]). This is presumably due to isocyanate formation and the direct release of H2S from the breakdown of 4.
With carbonic anhydrase: Six separate vials were each filled with 150 μL of freshly degassed PBS (pH 7.4) containing Zn(OAc)2 (2 mM), carbonic anhydrase (0.1 mg/mL), and DOX (80 μM). Next, 150 μL of Na2S stock solution in freshly degassed PBS (pH 7.4), and at differing concentrations (6.25, 12.5, 25.0, 50.0, 100 and 200.0 μM), was added to each vial to give a final volume of 300 μL and a final concentration of 3.125, 6.25, 12.5, 25.0, 50.0, and 100.0 µM Na2S. […] The MB solution was transferred to a 1.0 mL UV cuvette and the absorbance at 670 nm was recorded.
Without carbonic anhydrase: Six separate vials were each filled with 150 μL of freshly degassed PBS (pH 7.4) containing Zn(OAc)2 (2 mM) and DOX (80 μM). […] The MB solution was transferred to a 1.0 mL UV cuvette and the absorbance at 670 nm was recorded. […]
With carbonic anhydrase: To a 20 mL scintillation vial containing 9770 μL of freshly degassed PBS (pH 7.4) was added stock solutions of carbonic anhydrase (50 μL), H2O2 (40 μL), Zn(OAc)2 (100 μL), and c1 (or c2) (40 μL). […] After reacting for 30 min in the dark, absorbance measurements were recorded at 670 nm. […]

For `COc1cccc2c1C(=O)c1c(O)c3c(c(O)c1C2=O)C[C@@](O)(C(=O)CO)C[C@@H]3O[C@H]1C[C@H](NC(=S)OCc2ccc(B3OC(C)(C)C(C)(C)O3)cc2)[C@H](O)[C@H](C)O1` [c1], the “cytotoxicity (LDH release)” value [1] was “comparable, sometimes less and sometimes more, toxicity relative to DOX”, the “share of H2S production via COS hydrolysis facilitated by CA” value [2] was ~ 70% and the H2S released ([2]; absence of peroxides) was “negligible amounts of H2S”. For the same molecule, the H2S released ([2]; in presence of H2O2 and carbonic anhydrase) was “more than 16 μM”.

Source: patent US20260256922A1, “PRODRUGS USEFUL FOR REDUCING ANTHRACYCLINE CARDIOTOXICITY” (WAKE FOREST UNIVERSITY HEALTH SCIENCES, priority 2022, published 2026)
